Data published in patent US6967196B1, “Sulfonamide compounds and uses thereof” (Bristol-Myers Squibb Company, priority 1999, dated 2005).
Read-outs that look alike come from different tables or passages of the source. Each block holds one compound with its values, some of them ahead of it.

Tested on: amyloid β production in transfected H4 (human neuroglioma) cells stably expressing APP constructs
Assay: In vitro cell-based assay of inhibitors of amyloid β production (ELISA)
Conditions: amyloid β in medium by ELISA, read-out: ACTIVITY (IC50, inhibition of amyloid β production)
Method in brief: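 Aβ secreted into the medium was determined by a two-antibody ELISA specific for the Aβ C-terminus, calibrated with known Aβ amounts. Before that, compounds (10-100 μM initially) were left on the cells for roughly 16 hours.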

[1] = transfected H4 cells stably expressing APP, approx. 16 h incubation

IC50 (transfected H4 cells stably expressing APP, approximately 16 hours incubation, Table B): 50 to 100 nM
Compound: COC(=O)CCS(=O)(=O)Cc1cc(F)ccc1[C@@H](C)N(c1cc(F)ccc1F)S(=O)(=O)c1ccc(Cl)cc1 [Example 466, Methyl 3-{[2-((1R)-1-{[(4-chlorophenyl)sulfonyl]-2,5-difluoroanilino}ethyl)-5-fluorobenzyl]sulfonyl}propanoate]

IC50 (transfected H4 cells stably expressing APP, approximately 16 hours incubation): > 500 nM
Compound: N-{3-[2-({[(4-chlorophenyl)sulfonyl]-2,5-difluoroanilino}methyl)phenoxy]propyl}-N,4-dimethylbenzamide [Example 893]

IC50 (Homo sapiens, 16 h, transfected H4 cells stably expressing APP constructs, approximately 16 hours incubation): ≤ 25 nM
Compound: CC(C)N(C)S(=O)(=O)CCC[C@@H](C)N(c1cc(Cl)ccc1Cl)S(=O)(=O)c1ccc(Cl)cc1 [Example 1212, 4-chloro-N-[2,5-dichlorophenyl]-N-[4-[[N-(1-methylethyl)methylamino]sulfonyl]-1(R)-methylbutyl]benzenesulfonamide]

IC50 [1]: 100 to 500 nM
Compound: N-{3-[2-(1-{[(4-chlorophenyl)sulfonyl]-2,5-difluoroanilino}ethyl)phenoxy]propyl}-3-fluoro-N-methylbenzamide [Example 699]

IC50 (Homo sapiens, 16 h, transfected H4 cells expressing APP, approximately 16 hours incubation): > 500 nM
Compound: CCCCN(CCCC)CCCNC(=O)[C@@H](C)N(c1cc(Cl)ccc1F)S(=O)(=O)c1ccc(Cl)cc1 [Example 1333]

IC50 (Homo sapiens, 16 h, transfected H4 cells stably expressing APP, approximately 16 hours incubation): 100 to 500 nM
Compound: CCN(CC)C(=O)N(C)CCCOc1ccccc1CN(c1cc(F)ccc1F)S(=O)(=O)c1ccc(Cl)cc1 [Example 849, 4-chloro-N-(2-{3-[[(diethylamino)carbonyl](methyl)amino]propoxy}benzyl)-N-(2,5-difluorophenyl)benzenesulfonamide]

IC50 [1]: 100 to 500 nM
Compound: 2-((1R)-1-{[(4-chlorophenyl)sulfonyl]-2,5-difluoroanilino}ethyl)benzyl 2-methoxyethylcarbamate [Example 669]
